Measurements published in PMC5007513, “Discovery of new diketopiperazines inhibiting Burkholderia cenocepacia quorum sensing in vitro and in vivo” (Scientific Reports, 2016).
Like-named read-outs stand apart in the source and are kept apart here.

Target: T1, B. cenocepacia CepI (Burkholderia cenocepacia, UniProt B4EMD2)
T1 sequence (B4EMD2 1-202): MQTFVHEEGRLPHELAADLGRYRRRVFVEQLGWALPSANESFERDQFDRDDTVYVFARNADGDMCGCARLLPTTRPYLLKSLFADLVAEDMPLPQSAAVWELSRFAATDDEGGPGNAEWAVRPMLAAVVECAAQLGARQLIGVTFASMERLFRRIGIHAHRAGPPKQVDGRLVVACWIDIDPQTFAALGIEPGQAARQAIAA
Assay: CepI enzymatic assay (holo-ACP formation with DCPIP)
Assay type: biochemical, Burkholderia cenocepacia J2315
Experimental: Determination of the CepI enzyme activity was performed spectrophotometrically by measuring holo-ACP formation with dichlorophenylindophenol (DCPIP; ε = 19100 M^−1 cm^−1) at 37 °C according to Christensen et al.[19]. Reaction mixtures typically contained 50 mM 4-(2-hydroxyethyl)-1-piperazineethanesulfonic acid pH 7.5 (HEPES), 0.005% Nonidet P-40, 0.13 mM DCPIP, 70 μM C8-ACP, 40 μM S-adenosyl methionine (SAM), 4 μM CepI and the reaction was started by addition of SAM after pre-incubation for 10 min.
CepI inhibition was initially screened for all compounds at 100 μM (dissolved in DMSO). […] To determine IC50, the enzyme activities were measured in presence of different concentrations of compounds and values determined with equation (1): […]
where A[I] is the enzyme activity at inhibitor concentration [I] and A[0] is the enzyme activity without inhibitor.
Ki determination was determined using the equation (2) for noncompetitive inhibition[49]: […]

[1] = Supplementary Table S1, initial screen at 100 μM
[2] = recombinant CepI, read-out: CepI IC50

O=C1CNC(=O)C(c2cc(O)ccc2O)N1 (stereo not drawn) [7a]
CepI IC50 [1]: not inhibitory

CC(C)[C@H]1NC(=O)C(c2cc(OCc3ccccc3)ccc2OCc2ccccc2)NC1=O (stereo partly drawn) [6c]
CepI IC50 [1]: not inhibitory

O=C1C=CC(=O)C(C2NC(=O)CNC2=O)=C1 (stereo not drawn) [8a]
IC50 (Supplementary Table S1, initial screen at 100 μM, read-out: CepI IC50): 10 ± 1 µM

CC(C)C1NC(=O)C(C2=CC(=O)C=CC2=O)NC1=O (stereo not drawn) [8c]
IC50 [2]: 5 to 30 µM

CC(C)[C@H]1NC(=O)C(c2cc(O)ccc2O)NC1=O (stereo partly drawn) [7c]
CepI IC50 [1]: not inhibitory

O=C1N[C@H](Cc2ccccc2)C(=O)NC1c1cc(O)ccc1O (stereo partly drawn) [7b]
CepI IC50 [1]: not inhibitory

O=C1C=CC(=O)C(C2NC(=O)C(Cc3ccccc3)NC2=O)=C1 (stereo not drawn) [8b]
IC50: 5 ± 0.8 µM | Ki: 17 ± 0.6 µM | mechanism of inhibition (towards both C8-ACP and SAM substrates): non-competitive inhibitor

O=C1CNC(=O)C(c2cc(OCc3ccccc3)ccc2OCc2ccccc2)N1 (stereo not drawn) [6a]
IC50: 30 ± 6 µM

CN1CCN(C(c2ccccn2)c2c(-c3ccccc3)n(O)c3ccccc23)CC1 (stereo not drawn) [compound 1 from Christensen et al., reference compound]
IC50 [2]: 7.2 ± 0.2 µM

O=C1N[C@H](Cc2ccccc2)C(=O)NC1c1cc(OCc2ccccc2)ccc1OCc1ccccc1 (stereo partly drawn) [6b]
CepI IC50 [1]: not inhibitory
